Patent US9487566B2, “Method for purifying protein” (KYOWA HAKKO KIRIN CO., LTD, priority 2011, dated 2016)

What was measured:
neuraminidase [1] = assay: Capillary electrophoresis of Erythropoietin from culture fluid held with amino acids (bound sialic acids); format: biochemical; conditions: 1 mol/L amino acid solution mixed in equivalent amount, 25° C. for 7 days, compared with purified water / initiation
Procedure: Purified water, 1 mol/L alanine solution, 1 mol/L arginine solution, or 1 mol/L glycine solution was mixed with the culture fluid containing Erythropoietin in an equivalent amount, respectively and then held at 25° C. for 7 days. Thereafter, Erythropoietin was purified using an anti-Erythropoietin antibody-immobilized affinity chromatography column, and the number of sialic acids binding to Erythropoietin was measured by capillary electrophoresis [Biol. Pharm. Bull. 33(9) 1596-1599 (2010)].

protease = conditions: glycine 0.5 mol/L or arginine 0.4 mol/L final, 25° C. for 6 days
neuraminidase [2] = assay: Neuraminidase activity after addition of amino acids to Antithrombin eluate (enzyme assay); format: biochemical, CHO cell
Procedure: The Antithrombin concentration and the neuraminidase activity in the washing fraction before elution and in a particular range of eluate were measured by reversed-phase HPLC method [J. Chromatography B, 662, 209 (1994)] and enzyme assay [Glycobiology, 3, 455 (1993)], respectively.
Arginine hydrochloride or glycine of a final concentration of 0 to 500 mmol/L was added to the aqueous solution containing Antithrombin obtained in the elution process of Comparative Example 1. The neuraminidase activity in each solution was measured in the same manner as in Example 1.

[3] = tested on: Neuraminidase (manufactured by Nacalai Tesque); conditions: final concentration 1.0 mol/L, neuraminidase 0.0005 U/mL, 37° C. for 3 hours
Procedure: As a control group, purified water was added in the same amount as the neuraminidase. Glycine was added at a final concentration of 1.0 mol/L, or purified water as a control, and held at 37° C. for 3 hours.

[4] = Storage stability of purified Protein S by SDS-PAGE; format: physicochemical; conditions: held at 37° C. for 3 days vs frozen at −20° C.
Procedure: The Protein S-Example 16 and the Protein S-Comparative Example 3 were held at 37° C. for 3 days, or they were also frozen at −20° C., respectively.

Compound	number of sialic acids binding to Erythropoietin after holding (neuraminidase [1])	conversion of Protein S into the cleaved form (protease)	relative neuraminidase activity (activity at 0 mmol/L amino acid regarded as 1.0) (neuraminidase [2]; addition of 100 mmol/L)	change on storage (cleaved form, SDS-PAGE) [4]	further results
C[C@H](N)C(=O)O [alanine]	the number of bound sialic acids was maintained	–	–	–	–
N=C(N)NCCC[C@H](N)C(=O)O [arginine]	the number of bound sialic acids was equivalent	conversion of Protein S into the cleaved form was inhibited	about 0.2	–	relative neuraminidase activity (activity at 0 mmol/L amino acid regarded as 1.0) (neuraminidase [2]; addition of 200 mmol/L or more, below the detection limit): 0
NCC(=O)O [glycine]	the number of bound sialic acids was maintained	conversion of Protein S into the cleaved form was inhibited	about 0.2	–	electrophoretic profile of Protein S (basic shift by loss of sialic acid) [3]: major bands were found in a more acidic region than the band of purified water-added one; relative neuraminidase activity (activity at 0 mmol/L amino acid regarded as 1.0) (neuraminidase [2]; addition of 300 mmol/L or more, below the detection limit): 0
Protein S-Comparative Example 3: Protein S obtained by the method described in Comparative Example 3 (purified without using the mixed mode carrier)	–	–	–	the cleaved form was increased	–
Protein S-Example 16: Protein S obtained by the method described in Example 16 (purified using the mixed mode carrier)	–	–	–	no change	–
